These results are taken from PubChem BioAssay (NCI).

Common to all, as to assay: NCI tumour cell line growth inhibition, 48 h
For assay [1], the system named is ACHN renal.
The test system of assay [2] is HCC-2998 colon.
Assay [3] relates to IGROV1 ovarian.
Assay [4] has as its system LOX IMVI melanoma.
Assay [5] concerns NCI-H23 lung.
Assay [6] deals with RPMI-8226 leukemia.
In assay [7] the test system is SK-MEL-28 melanoma.
For assay [8], the system named is T-47D breast.
In assay [9] the test system is TK-10 renal.
Assay [10] relates to UO-31 renal.

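The compound was tested at five concentrations on cells cultured in 96-well plates, with a 48-hour exposure period. The concentration for full growth arrest is given as TGI.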

As for `Nc1cccc2cc(Cl)cnc12`, the TGI in [1], in assay [2], in [3], in [4], in assay [5] and in assay [6] was more than 100 µM each time. The TGI in assay [7], in assay [8], in assay [9] and in [10] was more than 100 µM each time.
With `C=C1c2nc3ccccc3n2C=C(c2ccccc2)N1c1ccc([N+](=O)[O-])cc1`, the TGI in assay [1] was 12.8 µM; in [2], more than 23.2 µM; in assay [3], 27 µM; in assay [4], more than 100 µM; in assay [5], 38.5 µM; in assay [6] it was more than 55.7 µM. The TGI in [7] is more than 65.2 µM; in assay [8] it was more than 53.5 µM; in assay [9] it was 22.1 µM; in assay [10], 16 µM.
On to `COc1ccc(C2c3cc4c(cc3OC(NNS(=O)(=O)c3ccc(C)cc3)C2C)OCO4)cc1` (stereo not given), for which the TGI in [1], in assay [2], in [3], in assay [4], in assay [5] and in assay [6] was more than 100 µM in each case. The TGI in [7], in [8], in [9] and in assay [10] was more than 100 µM each time.
As to `CCOC(=O)c1c2ccccc2n2c(N)c(C(N)=O)nnc12`, the TGI is 26.6 µM in assay [1]; more than 100 µM in assay [2]; 42.6 µM in [3]; more than 100 µM in assay [4]; 66.2 µM in [5]; more than 100 µM in [6]. Besides, the TGI is more than 100 µM in assay [7], more than 100 µM in [8], 40.5 µM in assay [9] and more than 100 µM in [10].
Consider `COC(=O)c1cc2c(n1S(=O)(=O)c1ccc(C)cc1)C(=O)C(=O)c1[nH]cc(C(=O)OCc3ccccc3)c1-2`, for which the TGI in [1] came to 0.682 µM; in assay [2] it was 0.634 µM; in assay [3], 0.559 µM; in [4], 0.176 µM; in assay [5], 0.211 µM; in assay [6] it was 0.515 µM. Further, the TGI in assay [7] was 0.226 µM; in assay [8], 0.975 µM; in [9], 1.51 µM; in assay [10], 0.685 µM.
On to `O=C1/C(=C/c2ccc(O)cc2)CC/C1=C\c1ccc(O)cc1`, for which the TGI in [1], in assay [2], in [3], in assay [4], in assay [5] and in [6] was more than 100 µM throughout. Also, the TGI in [7], in [8], in [9] and in [10] was more than 100 µM each time.
On to `O=C(O)c1cccc2c1/C(=N/Nc1ccccc1)CC2`, for which the TGI in [1], in assay [2], in [3], in assay [4], in assay [5] and in assay [6] was more than 100 µM in each case. The TGI in assay [7], in [8], in assay [9] and in assay [10] was more than 100 µM in each case.
